Values after ≈ are worked out from the molar mass of the structure shown. Like-named read-outs stand apart in the source and are kept apart here.
Legend:
MTT cytotoxicity assay = format: cell-based; settings: human; for viability at 2 days, 200 μg/ml: 200 μg/ml (highest concentration tested), read-out: percentage cell viability
Experimental: (§1) Briefly, the cells were maintained in minimal essential medium supplemented with 10% foetal calf serum and sodium pyruvate. Cell suspensions were prepared from confluent monolayer cultures and plated at a density of 5 × 10^4 cells/ml and a total of 200 μl of the cell suspension was plated in a 96-well culture plate. After incubation at 37 °C in a 5% CO2 incubator, the cells were treated with different concentrations of the isolated compounds ranging from 10 to 200 μg/ml and incubated for 2 days. Doxorubicin chloride was used as the positive control. The wells were washed with PBS and fresh medium (200 μl) was then added to the wells. MTT (Sigma) dissolved in PBS (30 μl) was added to each well and incubated for 4 h at 37 °C. The medium was removed and MTT formazan crystals were dissolved in 50 μl DMSO. The amount of MTT reduction was measured immediately by detecting the absorbance using a microplate reader (BioTek Synergy, Analytical and Diagnostic Products, South Africa) at a wavelength of 570 nm. The percentage of cell viability was calculated using the formula below: %cell viability=Mean Absorbance of sample/Mean Absorbance of control×100
(§2) The intensity of the MTT formazan produced by living metabolically active cells is directly proportional to the number of live cells present (Mosmann, [14]).

[1] = DPPH free radical scavenging (antioxidant) assay; settings: tested 100 to 0.048 μg/ml
Experimental: The DPPH free radical scavenging spectrophotometric method described by Mensor et al. and modified by Aderogba et al. was used to evaluate the quantitative antioxidant activity. Reactions were carried out in 96-well microtitre plates and each of the isolated compounds was tested at varying concentrations ranging from 100 to 0.048 μg/ml. Blank solutions were prepared with methanol only while the negative control was DPPH solution (20 μl plus 50 μl methanol). Test sample solution contained compounds serially diluted in methanol. Methanol served as a blank for the microplate reader and the decrease in absorbance was measured at 515 nm. Percentage antioxidant activity (AA%) values were calculated from the absorbance values using the formula: AA%=100−Abssample–Absblank×100/Abscontrol
(Abs sample is the absorbance of the sample, Abs blank is the absorbance of the blank and Abs control is the absorbance of the control). L-ascorbic acid (vitamin C) was used as a positive control (antioxidant agent). The EC50 value, defined as the concentration of the sample leading to 50% reduction of the initial DPPH concentration, was calculated from the separate linear regression of plots of the mean percentage of the antioxidant activity against concentration of the test extracts obtained from the three replicate assays. The results are expressed as EC50 values obtained from the regression plots.

[2] = tested on: Salmonella typhimurium TA98; experiment: Ames test, antimutagenicity against 4-NQO, TA98; settings: for antimutagenic activity: TA98, against 4-NQO
Experimental: (§3) Briefly, 100 μl of bacterial stock were incubated in 20 ml of Oxoid Nutrient broth for 16 h at 37 °C on a rotary shaker. Of this overnight culture, 0.1 ml was added to 2.0 ml of top agar (containing histidine-biotin) together with 0.1 ml test solution and 0.5 ml phosphate buffer. […] To determine antimutagenicity, the test solution contained 50 μl test sample and 50 μl positive control). The top agar mixture was poured over the surface of a minimal agar plate and incubated for 48 h at 37 °C. After incubation the numbers of revertant colonies (mutants) in each plate were counted.
(§4) Where T is the number of revertants per plate in the presence of mutagen and the test solution and M is the number of revertants per plate in the positive control. All cultures were prepared in triplicate (except for the solvent control where five replicates were used). Absence of toxicity was confirmed when a background layer of bacterial growth, which should normally be present was observed.

[3] = tested on: Ehrlich ascites carcinoma (EAC) cell line; parameters: method as in Ramesh and colleagues (2012); settings: EAC cells, 100 μg/ml, ref Ramesh and colleagues (2012); cited from earlier work
[4] = tested on: Salmonella typhimurium TA100; experiment: Ames test, mutagenicity, TA100
[5] = tested on: Salmonella typhimurium TA100; experiment: Ames test, antimutagenicity against 4-NQO, TA100; settings: for antimutagenic activity: TA100, against 4-NQO
Experimental: as §3, §4

[6] = tested on: Salmonella typhimurium TA98; experiment: Ames test, mutagenicity, TA98
[7] = tested on: Dalton's lymphoma (DLA) cell line; parameters: method as in Ramesh and colleagues (2012); settings: DLA cells, 100 μg/ml, ref Ramesh and colleagues (2012); cited from earlier work
[8] = tested on: human hepatocellular carcinoma (C3A) cells; experiment: MTT cytotoxicity assay; format: cell-based; settings: Homo sapiens; C3A cells, 200 μg/ml; read-out: inhibition of cell growth
Experimental: as §1, §2

[9] = parameters: method as in earlier work; settings: 100 μg/ml, cell-free system, ref 22 Manna et al.; cited from earlier work
[10] = tested on: Salmonella typhimurium TA102; experiment: Ames test, antimutagenicity against MMC, TA102; settings: for antimutagenic activity: TA102, against MMC
Experimental: as §3, §4

[11] = C3A hepatocellular carcinoma cells, C3A cells, MTT, 2 days, 10 to 200 μg/ml, read-out: LC50

SMILES | CC50 at 2 days (MTT cytotoxicity assay) | EC50, DPPH free radical scavenging [1] [µg/mL] | antimutagenic activity [2] | Mean number of revertant colonies per plate (±SD) ([4]; TA100, 5 μg/ml) | Mean number of revertant colonies per plate (±SD) ([4]; TA100, 50 μg/ml) | Mean number of revertant colonies per plate (±SD) ([4]; TA100, 500 μg/ml) | antimutagenic activity [5] | Mean number of revertant colonies per plate (±SD) ([6]; TA98, 5 μg/ml) | Mean number of revertant colonies per plate (±SD) ([6]; TA98, 50 μg/ml) | Mean number of revertant colonies per plate (±SD) ([6]; TA98, 500 μg/ml) | CC50 at 2 days (MTT cytotoxicity assay; [11]) [µg/mL] | antimutagenic activity [10] | other results
COc1cccc2c1C(=O)c1c(O)c3c(c(O)c1C2=O)C[C@@](O)(C(=O)CO)C[C@@H]3O[C@H]1C[C@H](N)[C@H](O)[C@H](C)O1 [Doxorubicin, Doxorubicin chloride, reference compound] | 640 ± 32 nM | – | – | – | – | – | – | – | – | – | – | – | –
O=C1O[C@H]([C@@H](O)CO)C(O)=C1O [Ascorbic acid, L-ascorbic acid, reference compound] | – | 0.51 ± 0.08 (≈ 2.9 µM) | – | – | – | – | – | – | – | – | – | – | –
CC1(C)CC[C@]2(C(=O)O)CC[C@]3(C)C(=CC[C@@H]4[C@@]5(C)C[C@@H](O)[C@H](O)[C@@](C)(CO)[C@@H]5CC[C@]43C)[C@@H]2C1 [Arjunolic acid, arjunolic acid] | – | 6.25 ± 0.29 (≈ 12.8 µM) | most active | 107.33 ± 1.15 | 104.33 ± 2.52 | 109.00 ± 8.72 | most active | 26.67 ± 1.15 | 28.33 ± 3.78 | 33.00 ± 2.65 | 106 ± 5.11 | most active | inhibition at 500 µg/mL ([2]; Salmonella enterica, TYPHIMURIUM, read-out: percentage antimutagenicity (inhibition of mutagenic effect of 4-NQO), TA98, 500 μg/ml (highest concentration tested), 4-NQO 2 μg/ml): 42 ± 9.6%; inhibition of cell growth [3]: up to 70%; inhibition at 500 µg/mL ([5]; Salmonella enterica, TYPHIMURIUM, read-out: percentage antimutagenicity (inhibition of mutagenic effect of 4-NQO), TA100, 500 μg/ml (highest concentration tested), 4-NQO 1 μg/ml): 36 ± 1.5%; percentage antimutagenicity (inhibition of mutagenic effect of 4-NQO) ([5]; TA100, 500 μg/ml (highest concentration tested), 4-NQO 1 μg/ml): ≤ 35.84 ± 1.45%; inhibition of cell growth [7]: up to 70%; inhibition at 200 µg/mL [8]: 66%; DPPH free radical scavenging activity [9]: up to 80%; inhibition at 500 µg/mL ([10]; Salmonella enterica, TYPHIMURIUM, read-out: percentage antimutagenicity (inhibition of mutagenic effect of MMC), TA102, 500 μg/ml (highest concentration tested), MMC 1 μg/ml): 44 ± 0.18%; percentage antimutagenicity (inhibition of mutagenic effect of MMC) ([10]; TA102, 500 μg/ml (highest concentration tested), MMC 1 μg/ml): ≤ 43.78 ± 0.18%
CCCCCCCCCCCCCCCCCCCC(=O)O [Eicosanoic acid, eicosanoic acid] | > 200 µg/mL | >100 | – | 112.33 ± 2.89 | 102.67 ± 4.73 | 108.67 ± 5.03 | – | 28.67 ± 5.51 | 29.33 ± 4.04 | 27.77 ± 1.53 | – | – | viability at 2 days, 200 μg/ml (MTT cytotoxicity assay; C3A cells): 50.1 ± 6.21%
CCCCCCCCCCCCCCCCCCCCCCCCO [n-Tetracosanol, n-tetracosanol] | – | >100 | least active compound | 127.00 ± 7.21 | 121.33 ± 2.52 | 125.00 ± 8.18 | least active compound | 23.67 ± 4.51 | 35.67 ± 9.71 | 30.00 ± 7.81 | > 200 | least active compound | viability at 2 days, 200 μg/ml (MTT cytotoxicity assay; C3A hepatocellular carcinoma cells, C3A cells): 59.7 ± 7.23%
